Results: publication PMC11679033, “Assessing the Potential Synergistic/Antagonistic Effects of Citrinin and Cannabidiol on SH-SY5Y, HepG2, HEK293 Cell Lines, and Human Lymphocytes” (Toxins, 2024)

What was measured:
[1] = Lymphocyte proliferation / cytotoxicity (CBPI, RI); format: cell-based, human; conditions: human, citrinin 7.50 µg/mL, CBD 3.15 µg/mL, bleomycin 1.25 µg/mL, deduced from RI
From the text: (§1) On the same slides, parameters of cell proliferation, cytostasis and cytotoxicity were studied, according to recommendations by OECD 2023 [67]. For that purpose, the numbers of mono-, bi-, tri-, and quadrinuclear cells (i.e., M1, M2, M3, M4) were scored at 400× magnification using a light microscope (Leitz, Oberkochen, Germany). The total number of M1 to M4 cells counted per experimental group was 3000 (i.e., 6 × 500 cells).
(§2) Based on the scored ratios of M1 to M4 cells, the Cytokinesis-Block Proliferation Index (CBPI) was calculated, using the formula: CBPI = [(No. of mononucleated cells) + (2 × No. of binucleated cells) + (3 × No. of multinucleated cells)]/(Total number of cells).
(§3) To establish the relative number of cell cycles per cell during the period of exposure to cytoB in treated compared to control cultures, the Replication Index (RI) was also calculated according to the formula:RI = {[(<No. binucleated cells> + <2 × No. multinucleated cells>)/(Total number of cells in treated culture)]/[(<No. binucleated cells> + <2 × No. multinucleated cells>) […] (Total number of cells in control culture)]} × 100
(§4) Finally, from the obtained values of RI, the cytotoxicity estimate was deduced, as % Cytotoxicity = […].

[2] = system: human peripheral blood lymphocytes; experiment: Lymphocyte proliferation / cytotoxicity (CBPI, RI); format: cell-based; conditions: 24 h, citrinin 7.50 µg/mL, CBD 3.15 µg/mL, bleomycin 1.25 µg/mL; for Cytokinesis-Block Proliferation Index: 3000 cells scored; for Replication Index (%): relative to negative control
From the text: as §1, §2, §3, §4

human TK6 cells = system: human TK6 cells; design: method as in PMID 37105391; conditions: up to 10–11 μg/mL, with and without metabolic activation; cited from earlier work
[3] = design: method as in PMID 38908200; conditions: 24 h exposure to CBD samples; cited from earlier work
[4] = system: buccal-derived cells (TR146); design: method as in PMID 30341733; conditions: cited from earlier work
[5] = system: human liver cell line (HepG2); design: method as in PMID 30341733; conditions: cited from earlier work
[6] = system: cultured human lymphocytes; design: method as in PMID 17265422; conditions: 48 h exposure, 60–100 μM; cited from earlier work
A549 cells = system: A549 cells; design: method as in PMID 39057961; conditions: A549, 24 h, sub-IC50 and near IC50 concentrations; cited from earlier work
HepG2 cells = conditions: cited from earlier work
HEK293 cells = system: HEK293 cells; design: method as in PMID 13678658; conditions: HEK293, concentrations ≤60 μM for 24 h; cited from earlier work

Row | Compound | cytotoxicity at 24 h [1] [%] | Cytokinesis-Block Proliferation Index [2] | Replication Index (%) [2] [%] | genotoxic hazard (human TK6 cells) | genomic instability estimated by CBMN Cyt Assay [3] | level above which damage was found in MN assay [4] | level above which damage was found in MN assay [5] | induction of MNi vs negative controls [6] | DNA damage in comet assay (A549 cells) | DNA damage in comet assay (HepG2 cells; HepG2, 24 h, sub-IC50 and near IC50 concentrations) | genotoxicity in comet assay (HepG2 cells; HepG2) | toxic effect in Fpg-modified comet assay (HEK293 cells)
1 | C=C(C)[C@@H]1CCC(C)=C[C@H]1c1c(O)cc(CCCCC)cc1O [CBD, cannabidiol] | 2.86 | 1.96^↓nc, sc | 97.14 | did not pose a genotoxic hazard | no changes in genomic instability | above 0.2 µM | above 0.2 µM |  |  |  |  | 
2 | CC1=C2C(=CO[C@H](C)[C@H]2C)C(O)=C(C(=O)O)C1=O [CIT, citrinin] | 16.5 | 1.83^↓nc, sc, cbd, & | 83.46 |  |  |  |  | significant induction of MNi | induced significant DNA damage | induced significant DNA damage | no significant genotoxicity | did not show toxic effect
